Experimental data reported in patent US7879900B2, “3-aminocarbazole compounds, pharmaceutical composition containing the same and method for the preparation thereof” (Aziende Chimiche Riunite Angelini Francesco A.C.R.A.F. …, priority 2005, dated 2011).

Key:
production of PGF2α = experiment: Inhibition of PGF2α production in IL-1β-stimulated A549 cells (EIA); type: cell-based; conditions: Homo sapiens, IL-1β 1 ng/ml, 18 hours; for inhibition at 10 µM: compound 10 μM, na = not active at the experimental concentration; for IC50: negative logarithm of IC50, read-out: pIC50 PGF2α (converted)
Excerpt: (§1) This test allows evaluation of the inhibitory capability on the production of the PGE2 prostaglandins and the selectivity relative to the production of the PGF2α prostaglandins.
(§2) The cell line A549, human pulmonary adenocarcinoma, was used, which is particularly sensitive to stimulation with pro-inflammatory cyokines, for instance IL-1β, and, in response to this stimulation, is particularly active in the production and release of two prostanoids: PGE2 and PGF2α (Thoren S. Jakobsson P-J, 2000).
(§3) The cells were stimulated with IL-1β, (1 ng/ml) and simultaneously treated with the test compound for 18 hours in an appropriate culture medium (DMEM—Dulbecco's Modified Eagle's Medium) supplemented with 5% foetal calf serum and L-glutamine (4 mM final) in an incubator at 37° C. and at a CO2 concentration of 5%.
(§4) After the incubation, the amount of PGE2 and PGF2α produced and released into the supernatant were assayed using an EIA kit (produced and sold by Cayman Chemicals, Ann Arbor, Mich., USA).
(§5) The comparative compounds used were indomethacin (Sigma-Aldrich), a non-steroidal anti-inflammatory drug that inhibits in equal measure both PGE2 and PGF2α, and also the compounds of formula (I) in which R1=CH3CH2, R2=OH, R3=R4=R5=R6=X=Y=H (comparative compound A) and R1=CH3CH2, R2=SCH3, R3=R4=R5=R6=X=Y=H (comparative compound B). […]

production of PGE2 = experiment: Inhibition of PGE2 production in IL-1β-stimulated A549 cells (EIA); type: cell-based; conditions: Homo sapiens, IL-1β 1 ng/ml, 18 hours; for inhibition at 10 µM: compound 10 μM, na = not active at the experimental concentration; for IC50: negative logarithm of IC50, read-out: pIC50 PGE2 (converted)
Excerpt: as §1, §2, §3, §4, §5

production of PGI2 = experiment: Test on human primary endothelial cells (HUVEC): inhibition of PGI2 production; type: cell-based; conditions: for Inhibition (%) of PGI2: compound at LogM −5, relative to control
Protocol: This test allows evaluation of the capability of the compounds of the invention to inhibit the production of PGI2.
The absence of inhibitory activity on this prostanoid can ensure maintenance of the vasoprotective action of the PGI2 prostanoids and provide useful pharmacological information regarding the absence of adverse side effects on the endothelium.
The action of the test compounds is evaluated in HUVEC cells under basal conditions and conditions of stimulation (J. Immunol. 1989, Jun. 1; 142(11): 3993-9).
The results are given as a percentage of inhibition relative to the control enzymatic activity.
Indomethacin is used as reference compound.

melting point [°C] | IC50 (production of PGF2α) [nM] | IC50 (production of PGE2) [nM] | IC50 (production of PGI2; Homo sapiens, PGI2, printed as a negative logarithmic figure, read-out: IC50 (comparison compound) (converted)) [nM] | Structure (SMILES) | inhibition at 10 µM (production of PGF2α) [%] | inhibition at 10 µM (production of PGE2) [%] | Inhibition (%) of PGI2 (production of PGI2) [%]
195 | 10000 | 794 | – | CC(C)n1c2ccccc2c2cc(NC(=O)c3ccccc3Cl)ccc21 [Compound 2, 2-chloro-N-[9-(1-methylethyl)-9H-carbazol-3-yl]benzamide] | 66 | 90 | 31
206 | – | – | – | Cn1c2ccccc2c2cc(NC(=O)c3ccccc3Cl)ccc21 [Compound 1, 2-chloro-N-(9-methyl-9H-carbazol-3-yl)benzamide] | 27 | 59 | –
– | 2.51 | 5.01 | 10 | COc1ccc2c(c1)c(CC(=O)O)c(C)n2C(=O)c1ccc(Cl)cc1 [indomethacin, reference compound] | 100 | 100 | –

The remaining lines, values behind:

Structure (SMILES) | melting point [°C] | IC50 (production of PGF2α) [nM] | IC50 (production of PGE2) [nM] | IC50 (production of PGI2; Homo sapiens, PGI2, printed as a negative logarithmic figure, read-out: IC50 (comparison compound) (converted)) [nM] | inhibition at 10 µM (production of PGF2α) [%] | inhibition at 10 µM (production of PGE2) [%] | Inhibition (%) of PGI2 (production of PGI2) [%]
CCn1c2ccccc2c2cc(NC(=O)c3c(C)cccc3C)ccc21 [Compound 5, N-(9-ethyl-9H-carbazol-3-yl)-2,6-dimethylbenzamide] | 192 to 193 | – | – | – | 60 | 93 | –
O=C(Nc1ccc2c(c1)c1ccccc1n2Cc1ccccc1)c1ccccc1Cl [Compound 3, 2-chloro-N-[9-(phenylmethyl)-9H-carbazol-3-yl]benzamide] | – | > 100000 | 1260 | – | 7 | 86 | –
CCn1c2ccccc2c2cc(NC(=O)c3ccccc3C(F)(F)F)ccc21 [Compound 4, N-(9-ethyl-9H-carbazol-3-yl)-2-(trifluoromethyl)benzamide] | 206 to 207 | 100000 | 631 | – | 0 | 67 | 21
CCn1c2ccccc2c2cc(NC(=O)c3ccccc3O)ccc21 [Compound A, N-(9-ethyl-9H-carbazol-3-yl)-2-hydroxybenzamide, reference compound] | – | – | – | – | 84 | 88 | –
